Series [1] has as its system E. coli ATCC 25922. Nature of the series: MIC by broth dilution method. The series is classed as cell-based. The following applies: E. coli ATCC 25922, 24 hours at 37° C. As for the experimental part:
(§1) The minimal inhibitory concentration (MIC) of the antibacterial compounds may be determined using the broth dilution method, according to CLSI guidelines. Test compound solutions (or antibiotic solutions used as positive controls) were diluted, serially, with MHB medium. Then, the suspensions of the microorganisms, prepared from overnight cultures of bacteria in the MHB medium, at a concentration of 10^6 CFU/ml, were added to each dilution in a 1:1 ratio. McFarland standards were used as a reference to adjust the turbidity of microorganism suspensions. Growth (or lack thereof) of the microorganisms was determined after incubation for 24 hours at 37° C. by turbidimetry (wavelength of 600 nm). […] The susceptibility test by measurement of MIC was performed in triplicate and repeated three times independently.
In general terms: In broth dilution the organism is exposed to a series of concentrations in liquid medium.

Series [2] deals with Strept. pyogenes ATCC 19615. As to the kind of experiment: MIC by broth dilution method. Type of series: cell-based. The method, then:
as §1

The subject of series [3] is Staph. aureus ATCC 25923 (MSSA). As to the kind of experiment: MIC by broth dilution method. The series is classed as cell-based. As for the experimental part:
as §1

For series [4], the system named is K. pneumoniae ATCC 13883. Nature of the series: MIC by broth dilution method. Type of series: cell-based. The method, then: as §1
In series [5] the test system is P. auriginosa ATCC 27853. Nature of the series: MIC by broth dilution method. The series is classed as cell-based, P. aeruginosa. The method, then:
as §1

In series [6] the test system is MCF7 cells. As to the kind of experiment: Seahorse XF96 metabolic flux analysis (OCR/ECAR). The series is classed as cell-based, human. From the text:
The present approach further involves methods of functional validation at step S105, during which a compound's function as a mitochondrial inhibitor may be confirmed. A number of methods may be used for functional validation, including, for example, metabolic flux analysis, mammosphere assays, viability assays, and antibiotic (anti-bacterial and/or anti-fungal) activity. For example, the inventors determined extracellular acidification rates (ECAR) and real-time oxygen consumption rates (OCR) for MCF7 cells using the Seahorse Extracellular Flux (XF96) analyzer (Seahorse Bioscience, MA, USA). MCF7 cells were maintained in DMEM supplemented with 10% FBS (fetal bovine serum), 2 mM GlutaMAX, and 1% Pen-Strep. 5,000 cells per well were seeded into XF96-well cell culture plates, and incubated overnight at 37° C. in a 5% CO2 humidified atmosphere. After 24 hours, cells were treated with selected compounds showing ATP-depletion without prominent cytotoxicity at various concentrations (or vehicle alone). After 72 hours of treatment, cells were washed in pre-warmed XF assay media (for OCR measurement, XF assay media was supplemented with 10 mM glucose, 1 mM Pyruvate, 2 mM L-glutamine and adjusted at pH 7.4). Cells were maintained in 175 μL/well of XF assay media at 37° C. in a non-CO2 incubator for 1 hour. During incubation, 25 μL of 80 mM glucose, 9 μM oligomycin, 1M 2-deoxyglucose (for ECAR measurement) and 25 μL of 10 μM oligomycin, 9 μM FCCP, 10 μM rotenone, 10 μM antimycin A (for OCR measurement) in XF assay media was loaded into the injection ports of the XFe-96 sensor cartridge. During the experiment, the instrument injected these inhibitors into the wells at a given time point, while ECAR/OCR was measured continuously. ECAR and OCR measurements were normalized by protein content (using the Sulphorhodamine B assay). Data sets were analyzed by XFe-96 software, using one-way ANOVA and Student's t-test calculations. All experiments were performed in triplicate, and results validated the mitochondrial inhibition effects of mitoriboscin compounds described herein. It should be appreciated that numerous methods are known for functional validation, and that persons of skill in the art may select one or more depending on the validation needs (e.g., other assays that measure or approximate mitochondrial function). The present approach involves methods of function validation of mitoriboscin compounds. For example, the inventors assessed functional validation of three candidates using the Seahorse Analyzer, which quantitatively measures oxygen consumption rate (OCR) and extracellular acidification rate (ECAR). OCR is a surrogate marker for OXPHOS and ECAR is a surrogate marker for glycolysis and L-lactate production.

The test system of series [7] is MRSA ATCC 43300. Nature of the series: MIC by broth dilution method. The series is classed as cell-based, Methicillin-resistant Staphylococcus aureus. As for the experimental part: as §1, with “nm). MIC 50 and MIC 99 are defined as the minimum inhibitory concentration of the compound required for 50% and 99% inhibition of bacterial growth.” for “nm).”, “independently. Statistical significance was determined using the Student's t-test and values of less than 0.05 were considered significant.” for “independently.”
(§2) In order to determine the minimal inhibitory concentration (MIC) for 24/F9, 24/D4 and 23/G4, the broth dilution method may be performed.

Series [8] concerns hTERT-BJ1 cells. Nature of the series: Cell viability of normal fibroblasts. Type of series: cell-based. The conditions noted are these: 5 μM, normal human fibroblasts, FIG. 6. The method, then:
(§3) The present approach includes methods of confirming cell viability. Persons of skill in the art may select one or more methods for confirming cell viability suitable for the particular embodiment. The inventors initially used the Sulphorhodamine (SRB) assay, which is based on the measurement of cellular protein content. After treatment for 72 hours in 96-well plates, cells were fixed with 10% trichloroacetic acid (TCA) for 1 hour in the cold room, and were dried overnight at room temperature. Then, cells were incubated with SRB for 15 min, washed twice with 1% acetic acid, and air dried for at least 1 hour. Finally, the protein-bound dye was dissolved in a 10 mM Tris, pH 8.8 solution and read using the plate reader at 540-nm. Using the SRB assay, the inventors selected only the compounds depleting ATP levels without prominent cytotoxicity for further analysis. Prominent cytotoxicity was defined as fewer than 30% of cells still on the plate. Of course, embodiments employing other cell viability confirmation methodology may select compounds for further analysis based on other considerations as may be known in the art.
(§4) Based on this analysis, the inventors assessed the functional effects of the three candidates on overall viability in MCF7 cell monolayers and normal human fibroblasts (hTERT-BJ1 cells) (FIG. 6). […]

Series [9] relates to MCF7 cell monolayers. As to the kind of experiment: Cell viability of MCF7 monolayers (SRB). The series is classed as cell-based, human. The conditions noted are these: FIG. 6. As for the experimental part:
as §3, §4

The subject of series [10] is C. albicans. Nature of the series: MIC by broth dilution method. Type of series: cell-based. The conditions noted are these: C. albicans ATCC 13883. As for the experimental part:
as §1, with “nm). MIC 50 and MIC 99 are defined as the minimum inhibitory concentration of the compound required for 50% and 99% inhibition of bacterial growth.” for “nm).”, “independently. Statistical significance was determined using the Student's t-test and values of less than 0.05 were considered significant.” for “independently.”
as §2

Series [11] relates to MCF7 cells. Nature of the series: Mammosphere formation assay. The series is classed as cell-based, human. The following applies: 5 μM, FIG. 5. The text has this: The present approach involves methods of testing compounds, and in particular mitoriboscins, for anti-cancer properties. As discussed above, vHTS and computational chemistry may be used to identify candidate mitochondrial inhibitors. Those candidates may be tested for specific anti-cancer properties. For examples, the inventors compared seven candidate compounds in parallel for their ability to inhibit mammosphere formation in MCF7 cells. […] For example, 23/G4 (Group 1) reduced mammosphere formation by 50% at this concentration. Similarly, 24/F9 (Group 2) and 24/D4 (Group 3), both reduced mammosphere formation by ˜90%.

Series [12] deals with twelve different cell lines, representing eight different cancer types. The conditions noted are these: cited from earlier work.
Where [13] appears, read: Staph. aureus ATCC 25923 (Table 3).

SMILES strings stand for the structures. In brackets after ≈: the same amount, converted by molar mass.

As to `OC1C(NCc2ccccc2)CCCC1Oc1ccccc1Oc1ccc(Cl)cc1` (stereo not shown) [23/G4], the “MIC 50%” value in series [1] is above 16 µg/mL; in series [2], 4 µg/mL (≈ 9.44 µM); in [3] (MSSA ATCC 25923 (Table 4)) it was 4 µg/mL (≈ 9.44 µM); in series [3] (setting [13]) it was 4 µg/mL (≈ 9.44 µM); in series [4] it was 16 µg/mL (≈ 37.7 µM); in series [5] it was 16 µg/mL (≈ 37.7 µM). Also, the results for the “MIC 50%” value in series [7] (MRSA ATCC 43300) and in [10] were 16 µg/mL (≈ 37.7 µM) and 8 µg/mL (≈ 18.9 µM), respectively. The “MIC 99%” value in [1] is above 32 µg/mL; in series [2], 8 µg/mL (≈ 18.9 µM); in series [3] (MSSA ATCC 25923 (Table 4)), 8 µg/mL (≈ 18.9 µM); in series [3] (setting [13]), 8 µg/mL (≈ 18.9 µM); in series [4], 32 µg/mL (≈ 75.5 µM); in series [5], 32 µg/mL (≈ 75.5 µM). Further, the figures for the “MIC 99%” value in series [7] (MRSA ATCC 43300) and in series [10] were above 32 µg/mL and 16 µg/mL (≈ 37.7 µM), respectively. Further, the “reduction of ATP levels” value in [6] (500 nM) was above 50%; in [6] (2.5 μM, FIG. 7), around 75%. The “reduction in ATP levels” value in series [6] (5 μM, FIG. 10) is reported as “greater than 75%”. Also, the “increase in glycolysis rates” value in [6] (ECAR) was “more than 1.5 fold”. Also, the “inhibition of mitochondrial oxygen-consumption” value in [6] (FIGS. 7, 8 and 9) is “dose-dependently inhibited”. Further, in [6] (top 10 hits, FIG. 10), the “rank order potency to reduce maximal respiration and ATP production” value is “top 6”. For the same compound, the “sensitivity of MRSA” value in [7] (MRSA, summary of Table 4) is “sensitive”. Besides, in [8], the “effect on viability of hTERT-BJ1 cells” value is “no effect”. In series [9] (500 nM and 2.5 μM), the “effect on overall cell viability of MCF7 monolayers” value is “little or no effect”. Further, the “reduction of viability of MCF7 cells” value in series [9] (5 μM) was found to be 70%. The “reduction of mammosphere formation” value in [11] is 50%.

As to `CC[C@H]1OC(=O)[C@H](C)[C@@H](O[C@H]2C[C@@](C)(OC)[C@@H](O)[C@H](C)O2)[C@H](C)[C@@H](O[C@@H]2O[C@H](C)C[C@H](N(C)C)[C@H]2O)[C@](C)(O)C[C@@H](C)C(=O)[C@H](C)[C@@H](O)[C@]1(C)O` [Erithromycin], the “efficacy in cancer cell lines” value in series [12] is “show efficacy”.
